ChEMBL document CHEMBL3091304 (Bioorg Med Chem, 2013)
pIC50, pKi: −log10 of the molar value. Activity calls are given as the source filed them. The calls are words filed in the database; no cut-off is given here.

How the values were obtained:
[1] = biological target: Kappa-type opioid receptor (Cricetulus griseus) (UniProt G3HZR5); assay: Displacement of [3H]U-69593 from kappa opioid receptor in CHO cells at 10 uM after 120 mins relative to control; type: cell-based
[2] = biological target: Kappa-type opioid receptor (Cricetulus griseus) (UniProt G3HZR5); assay: Displacement of [3H]U-69593 from kappa opioid receptor in CHO cells at 1 uM after 120 mins relative to control; type: cell-based
[3] = biological target: Delta-type opioid receptor (Cricetulus griseus) (UniProt G3H1Y1); assay: Displacement of [3H]DADLE from delta opioid receptor in CHO cells at 1 uM after 120 mins relative to control; type: cell-based
[4] = biological target: Delta-type opioid receptor (Cricetulus griseus) (UniProt G3H1Y1); assay: Displacement of [3H]DADLE from delta opioid receptor in CHO cells at 10 uM after 120 mins relative to control; type: cell-based
Hepatocyte [5] = assay: Inhibition of UDP-glucuronosyltransferase in Sprague-Dawley rat hepatocytes assessed as morphine conversion to M3G at 5 to 10 uM incubated for 72 hrs prior to substrate addition measured after 2 hrs by HPLC analysis; type: cell-based
Rattus norvegicus [6] = organism: Rattus norvegicus; assay: Inhibition of UDP-glucuronosyltransferase in Sprague-Dawley rat liver microsomes assessed as morphine conversion to M6G after 30 mins by HPLC analysis
Rattus norvegicus [7] = organism: Rattus norvegicus; assay: Inhibition of UDP-glucuronosyltransferase in Sprague-Dawley rat liver microsomes assessed as morphine conversion to M3G up to 50 uM after 30 mins by HPLC analysis relative to control
[8] = biological target: Mu-type opioid receptor (Homo sapiens) (UniProt P35372); details: HEK293, at 10 µM
Description: Displacement of [3H]diprenorphine from mu opioid receptor in HEK293 cells at 10 uM after 120 mins relative to control

[9] = biological target: Mu-type opioid receptor (Homo sapiens) (UniProt P35372); details: HEK293, at 1 µM
Description: Displacement of [3H]diprenorphine from mu opioid receptor in HEK293 cells at 1 uM after 120 mins relative to control

[10] = Inhibition of UDP-glucuronosyltransferase in Sprague-Dawley rat hepatocytes assessed as morphine conversion to M3G incubated for 72 hrs prior to substrate addition measured after 2 hrs by HPLC analysis; type: cell-based; details: Hepatocyte
Rattus norvegicus [11] = organism: Rattus norvegicus; assay: Competitive inhibition of UDP-glucuronosyltransferase in Sprague-Dawley rat liver microsomes assessed as morphine conversion to M3G up to 5 uM by Lineweaver-Burk plot analysis
[12] = (§1) Inhibition of UDP-glucuronosyltransferase in Sprague-Dawley rat liver microsomes assessed as morphine conversion to M3G after 30 mins by HPLC analysis
Rattus norvegicus [13] = organism: Rattus norvegicus; assay: as §1
[14] = Clearance in Sprague-Dawley rat liver microsomes at 50 uM; type: ADME; details: read-out: CLH
[15] = Clearance in Sprague-Dawley rat liver microsomes at 5 uM; type: ADME; details: read-out: CLH
[16] = Clearance in Sprague-Dawley rat liver microsomes at 10 uM; type: ADME; details: read-out: CLH
[17] = Clearance in Sprague-Dawley rat liver microsomes at 2.5 uM; type: ADME; details: read-out: CLH
[18] = Clearance in Sprague-Dawley rat liver microsomes at 1 uM; type: ADME; details: read-out: CLH
Rattus norvegicus [19] = organism: Rattus norvegicus; assay: Activity at UDP-glucuronosyltransferase in Sprague-Dawley rat liver microsomes assessed as morphine conversion to M3G at 50 uM by Michaelis-Menten plot analysis
Rattus norvegicus [20] = organism: Rattus norvegicus; assay: Activity at UDP-glucuronosyltransferase in Sprague-Dawley rat liver microsomes assessed as morphine conversion to M3G at 10 uM by Michaelis-Menten plot analysis
Rattus norvegicus [21] = organism: Rattus norvegicus; assay: Activity at UDP-glucuronosyltransferase in Sprague-Dawley rat liver microsomes assessed as morphine conversion to M3G at 5 uM by Michaelis-Menten plot analysis
Rattus norvegicus [22] = organism: Rattus norvegicus; assay: Activity at UDP-glucuronosyltransferase in Sprague-Dawley rat liver microsomes assessed as morphine conversion to M3G at 2.5 uM by Michaelis-Menten plot analysis
Rattus norvegicus [23] = organism: Rattus norvegicus; assay: Activity at UDP-glucuronosyltransferase in Sprague-Dawley rat liver microsomes assessed as morphine conversion to M3G at 1 uM by Michaelis-Menten plot analysis
Hepatocyte [24] = assay: Inhibition of UDP-glucuronosyltransferase in Sprague-Dawley rat hepatocytes assessed as morphine conversion to M3G at 5 to 40 uM incubated for 72 hrs prior to substrate addition measured after 2 hrs by HPLC analysis; type: cell-based

Sequence of Kappa-type opioid receptor (Cricetulus griseus) (G3HZR5 as listed by the source): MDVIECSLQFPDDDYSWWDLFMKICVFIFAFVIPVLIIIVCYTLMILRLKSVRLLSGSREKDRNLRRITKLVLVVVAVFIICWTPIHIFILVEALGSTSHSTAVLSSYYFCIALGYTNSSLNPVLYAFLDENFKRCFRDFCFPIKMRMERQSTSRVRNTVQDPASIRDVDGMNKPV
Sequence of Delta-type opioid receptor (Cricetulus griseus) (G3H1Y1 as listed by the source): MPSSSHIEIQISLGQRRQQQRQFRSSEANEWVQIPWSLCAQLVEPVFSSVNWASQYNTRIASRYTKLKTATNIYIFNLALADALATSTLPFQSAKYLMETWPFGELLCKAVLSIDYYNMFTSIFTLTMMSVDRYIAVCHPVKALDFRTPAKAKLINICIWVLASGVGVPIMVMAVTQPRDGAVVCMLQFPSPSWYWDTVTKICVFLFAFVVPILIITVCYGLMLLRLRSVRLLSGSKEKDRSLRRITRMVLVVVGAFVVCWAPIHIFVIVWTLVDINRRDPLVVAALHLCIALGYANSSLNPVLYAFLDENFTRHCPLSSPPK
Sequence of Mu-type opioid receptor (Homo sapiens) (P35372 whole entry): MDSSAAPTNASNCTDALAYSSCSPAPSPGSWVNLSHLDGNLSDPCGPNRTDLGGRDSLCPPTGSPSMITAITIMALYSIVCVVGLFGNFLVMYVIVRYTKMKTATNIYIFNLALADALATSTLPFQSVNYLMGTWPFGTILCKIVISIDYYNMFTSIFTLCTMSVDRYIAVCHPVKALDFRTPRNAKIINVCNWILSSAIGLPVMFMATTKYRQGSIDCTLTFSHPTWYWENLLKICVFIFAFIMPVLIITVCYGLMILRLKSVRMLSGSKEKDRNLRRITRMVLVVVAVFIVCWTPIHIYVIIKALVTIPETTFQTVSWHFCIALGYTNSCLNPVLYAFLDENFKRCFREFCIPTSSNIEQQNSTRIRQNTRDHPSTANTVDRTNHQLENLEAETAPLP

Question: For `COc1ccc2c3c1O[C@H]1[C@@H](O)CC[C@H]4[C@@H](C2)N(C)CC[C@@]341`, which inhibition [1] is on record?
Answer: The inhibition was 51%.

Question: And the inhibition [2]?
Answer: The inhibition was 4%.

Question: And the inhibition [3]?
Answer: The inhibition was 7%.

Question: What about the inhibition [4] of the same compound?
Answer: Its inhibition is 24%.

Question: What about the inhibition (Hepatocyte [5]) of the same compound?
Answer: The inhibition was “inactive”.

Question: And the inhibition (Rattus norvegicus [6])?
Answer: The inhibition was “inactive”.

Question: And the inhibition (Rattus norvegicus [7])?
Answer: The inhibition was 40%.

Question: And the inhibition [8]?
Answer: Its inhibition is 40%.

Question: And the inhibition [9]?
Answer: Its inhibition is 17%.

Question: What does the source list for `COc1ccc2c3c1O[C@H]1[C@@H](O)C=C[C@H]4[C@@H](C2)N(C)CC[C@@]341` [CODEINE]?
Answer: pIC50 [10]: 4.68; inhibition (Rattus norvegicus [11]): inactive; inhibition (Rattus norvegicus [6]): inactive; pIC50 [12]: 5.36; pKi [12]: 5.16; inhibition (Rattus norvegicus [13]): Dose-dependent effect; microsomal CLint at 50 µM [14]: 8.35 µL/min/mg; microsomal CLint at 5 µM [15]: 18.6 µL/min/mg; microsomal CLint at 10 µM [16]: 11.9 µL/min/mg; microsomal CLint at 2.5 µM [17]: 31.1 µL/min/mg; microsomal CLint at 1 µM [18]: 48 µL/min/mg; Km (Rattus norvegicus [19]): 0.48 µM; Vmax (Rattus norvegicus [19]): 4.06 nmol/min/mg; Km (Rattus norvegicus [20]): 0.37 µM; Vmax (Rattus norvegicus [20]): 4.41 nmol/min/mg; Km (Rattus norvegicus [21]): 0.43 µM; Vmax (Rattus norvegicus [21]): 8.04 nmol/min/mg; Km (Rattus norvegicus [22]): 0.41 µM; Vmax (Rattus norvegicus [22]): 12.4 nmol/min/mg; Km (Rattus norvegicus [23]): 0.26 µM; Vmax (Rattus norvegicus [23]): 12.5 nmol/min/mg

Question: For `COc1ccc2c3c1O[C@H]1[C@@H](OC(=O)C(C)(C)C)C=C[C@H]4[C@@H](C2)N(C)CC[C@@]341`, which inhibition [1] is on record?
Answer: The inhibition was 42%.

Question: What about the inhibition [2] of the same compound?
Answer: Its inhibition is 6%.

Question: And the inhibition [3]?
Answer: The inhibition was 57%.

Question: And the inhibition [4]?
Answer: Its inhibition is 90%.

Question: What about the inhibition (Hepatocyte [24]) of the same compound?
Answer: Its inhibition is “Active”.

Question: What about the inhibition (Rattus norvegicus [6]) of the same compound?
Answer: The inhibition was “inactive”.

Question: And the pIC50 [12]?
Answer: The pIC50 was 5.64.

Question: What about the pKi [12] of the same compound?
Answer: The pKi was 5.59.

Question: And the inhibition (Rattus norvegicus [13])?
Answer: The inhibition was “Dose-dependent effect”.

Question: And the microsomal CLint at 50 µM [14]?
Answer: Its microsomal CLint at 50 µM is 6.54 µL/min/mg.

Question: What about the microsomal CLint at 5 µM [15] of the same compound?
Answer: Its microsomal CLint at 5 µM is 12.7 µL/min/mg.

Question: What about the microsomal CLint at 10 µM [16] of the same compound?
Answer: Its microsomal CLint at 10 µM is 6.88 µL/min/mg.

Question: And the microsomal CLint at 2.5 µM [17]?
Answer: The microsomal CLint at 2.5 µM was 29.1 µL/min/mg.

Question: What about the microsomal CLint at 1 µM [18] of the same compound?
Answer: The microsomal CLint at 1 µM was 52.7 µL/min/mg.

Question: And the Km (Rattus norvegicus [19])?
Answer: Its Km is 0.62 µM.

Question: What about the Vmax (Rattus norvegicus [19]) of the same compound?
Answer: The Vmax was 3.95 nmol/min/mg.

Question: What about the Km (Rattus norvegicus [20]) of the same compound?
Answer: Its Km is 0.72 µM.

Question: And the Vmax (Rattus norvegicus [20])?
Answer: The Vmax was 4.63 nmol/min/mg.

Question: What about the Km (Rattus norvegicus [21]) of the same compound?
Answer: The Km was 0.36 µM.

Question: And the Vmax (Rattus norvegicus [21])?
Answer: The Vmax was 4.53 nmol/min/mg.

Question: What about the Km (Rattus norvegicus [22]) of the same compound?
Answer: The Km was 0.22 µM.

Question: What about the Vmax (Rattus norvegicus [22]) of the same compound?
Answer: The Vmax was 6.28 nmol/min/mg.

Question: And the Km (Rattus norvegicus [23])?
Answer: Its Km is 0.13 µM.

Question: And the Vmax (Rattus norvegicus [23])?
Answer: Its Vmax is 7.03 nmol/min/mg.

Question: And the inhibition [8]?
Answer: Its inhibition is 38%.

Question: And the inhibition [9]?
Answer: The inhibition was 20%.

Question: With `CCCCCCCCCCCC(=O)O[C@H]1C=C[C@H]2[C@H]3Cc4ccc(OC)c5c4[C@@]2(CCN3C)[C@H]1O5` as the compound, how does the inhibition [1] read?
Answer: Its inhibition is 40%.

Question: And the inhibition [2]?
Answer: Its inhibition is 8%.

Question: And the inhibition [3]?
Answer: The inhibition was -7%.

Question: And the inhibition [4]?
Answer: The inhibition was 13%.

Question: And the inhibition (Rattus norvegicus [6])?
Answer: The inhibition was “inactive”.

Question: And the inhibition (Rattus norvegicus [7])?
Answer: Its inhibition is “Active”.

Question: And the inhibition [8]?
Answer: Its inhibition is 12%.

Question: What about the inhibition [9] of the same compound?
Answer: The inhibition was 0%.

Question: Which results are given for `COc1ccc2c3c1O[C@H]1[C@@H](OC(C)=O)CC[C@H]4[C@@H](C2)N(C)CC[C@@]341`?
Answer: inhibition [1]: 13%; inhibition [2]: 3%; inhibition [3]: -10%; inhibition (Hepatocyte [5]): inactive; inhibition (Rattus norvegicus [6]): inactive; inhibition (Rattus norvegicus [7]): Active; inhibition [8]: 5%; inhibition [9]: -2%

Question: Which inhibition [1] does the source give for `COc1ccc2c3c1O[C@H]1[C@@H](OC(C)=O)C=C[C@H]4[C@@H](C2)N(C)CC[C@@]341` here?
Answer: Its inhibition is 66%.

Question: What about the inhibition [2] of the same compound?
Answer: The inhibition was 25%.

Question: And the inhibition [3]?
Answer: The inhibition was 18%.

Question: And the inhibition [4]?
Answer: Its inhibition is 60%.

Question: And the inhibition (Hepatocyte [24])?
Answer: Its inhibition is “Active”.

Question: What about the inhibition (Rattus norvegicus [11]) of the same compound?
Answer: The inhibition was “inactive”.

Question: What about the inhibition (Rattus norvegicus [6]) of the same compound?
Answer: Its inhibition is “inactive”.

Question: What about the pIC50 [12] of the same compound?
Answer: The pIC50 was 5.49.

Question: And the pKi [12]?
Answer: Its pKi is 5.29.

Question: What about the inhibition (Rattus norvegicus [13]) of the same compound?
Answer: Its inhibition is “Dose-dependent effect”.

Question: What about the microsomal CLint at 50 µM [14] of the same compound?
Answer: The microsomal CLint at 50 µM was 5.97 µL/min/mg.

Question: And the microsomal CLint at 5 µM [15]?
Answer: Its microsomal CLint at 5 µM is 25 µL/min/mg.

Question: And the microsomal CLint at 10 µM [16]?
Answer: Its microsomal CLint at 10 µM is 9.38 µL/min/mg.

Question: And the microsomal CLint at 2.5 µM [17]?
Answer: The microsomal CLint at 2.5 µM was 24.7 µL/min/mg.

Question: What about the microsomal CLint at 1 µM [18] of the same compound?
Answer: The microsomal CLint at 1 µM was 37.8 µL/min/mg.

Question: What about the Km (Rattus norvegicus [19]) of the same compound?
Answer: The Km was 0.69 µM.

Question: And the Vmax (Rattus norvegicus [19])?
Answer: The Vmax was 4.01 nmol/min/mg.

Question: What about the Km (Rattus norvegicus [20]) of the same compound?
Answer: Its Km is 0.35 µM.

Question: What about the Vmax (Rattus norvegicus [20]) of the same compound?
Answer: The Vmax was 3.31 nmol/min/mg.

Question: What about the Km (Rattus norvegicus [21]) of the same compound?
Answer: Its Km is 0.56 µM.

Question: What about the Vmax (Rattus norvegicus [21]) of the same compound?
Answer: Its Vmax is 7.92 nmol/min/mg.

Question: What about the Km (Rattus norvegicus [22]) of the same compound?
Answer: The Km was 0.41 µM.

Question: What about the Vmax (Rattus norvegicus [22]) of the same compound?
Answer: Its Vmax is 10.1 nmol/min/mg.

Question: What about the Km (Rattus norvegicus [23]) of the same compound?
Answer: Its Km is 0.26 µM.

Question: And the Vmax (Rattus norvegicus [23])?
Answer: Its Vmax is 9.74 nmol/min/mg.

Question: And the inhibition [8]?
Answer: Its inhibition is 43%.

Question: What about the inhibition [9] of the same compound?
Answer: Its inhibition is 19%.

Question: Which inhibition [1] does the source give for `CN1CC[C@]23c4c5ccc(O)c4O[C@H]2[C@@H](O)C=C[C@H]3[C@H]1C5` here?
Answer: Its inhibition is 100%.

Question: And the inhibition [2]?
Answer: The inhibition was 95%.

Question: And the inhibition [3]?
Answer: Its inhibition is 72%.

Question: What about the inhibition [4] of the same compound?
Answer: Its inhibition is 95%.
